# Read-outs that look alike come from different tables or passages of the source.
# What was measured:
# [1] = tested on: S. mutans; experiment: Minimum concentration which will completely inhibit growth, S. mutans; assay type: cell-based; conditions: Streptococcus mutans, procedure of Example 6
# Experimental: 5-n-octanoyl-2',3',4',5',6'pentafluorosalicylanilide is tested for effectiveness against S. mutans essentially in accordance with the procedure of Example 6.
# [2] = tested on: Actinomyces viscosus; experiment: Minimum concentration which will completely inhibit growth, Actinomyces viscosus; assay type: cell-based; conditions: A.viscosus, growth medium, read-out: Min. Conc. (minimum concentration which will completely inhibit growth)
# [3] = Acute oral toxicity of AN-10 (single dose, gavage); assay type: in vivo
# Experimental: Sixteen female white rats averaging 265 grams in weight were fasted overnight and divided into four groups of four animals each. In one group each animal received, by gavage tube, 4 ml of an aqueous solution of 1% methylcellulose, the drug delivery vehicle. This group was the control group. The remaining three groups received doses of 50, 750, and 2000 mg/kg of AN-10 in 4-ml aqueous suspension, respectively.
# This animal had received the 50 mg/kg dose.
# From this experiment it can be concluded that the LD50 for AN-10 by the single dose oral route is greater than 2000 mg/kg in Osborne-Mendel white rats.
# [4] = tested on: A.viscosus; experiment: Bactericidal effects against established dental plaque (nichrome wires), A.viscosus; assay type: cell-based; conditions: Actinomyces viscosus, 2 min, read-out: Minimum Concentration Required for Complete Bactericidal Effect
# Experimental: (§1) In vitro plaques are grown on no. 20 nichrome wires by fixing the wires to culture tube closures to suspend the wires into a complex culture medium supplemented with 5% by wt of sucrose and 0.005% sodium carbonate. Separate cultures are initially inoculated with A.viscosus and S.mutans and the wires are transferred daily to fresh medium until the wire-adherent microorganisms form well established plaques. All cultures are incubated at 37 degrees C. Plaque coated wires are then immersed in a solution of composition to be tested. The compositions tested are AN-10 and Chlorhexidine. The immersion time is two minutes. The solution in which the composition is dissolved is the same solution used to dissolve the composition in the previous example. The plaque is then rinsed with distilled water and transferred to fresh medium. The lack of growth in the fresh medium is considered as an indication that the microorganisms have been killed. Further plaque coated wires are treated as previously described until sufficient information is obtained to determine the minimum concentration of composition required to kill the microorganisms.
# [5] = tested on: S.mutans; experiment: Plaque growth inhibition in vitro on bovine tooth slabs, S.mutans; assay type: cell-based, Streptococcus mutans; conditions: for IC50: Streptococcus mutans, 2 min slab exposure, about 24 h incubation, anaerobic, reliability + or -80% or better
# Experimental: (§2) The composition prepared in example 2 above is tested in vitro for plaque inhibition in comparison with prior art compounds. The test used is set forth in detail in Comparison of Antiplaque Agents Using an In Vitro Assay Reflecting Oral Conditions by R. T. Evans et al, Journal of Dental Research, June 1977.
# (§3) In summary bovine mandibles, obtained immediately after slaughter, are cut into 4×8 mm slabs and sterilized in a 0.15 M NaCl solution buffered at a pH of 7.5 with 0.02 M sodium phosphate (PBS soln.) Before use the slabs are coated with sterile saliva and then rinsed twice in sterile PBS. The slabs are then placed in small plastic petri dishes containing various concentrations of the compositions to be tested. The test solution used in accordance is a solution of the composition in a mixture of 20% by volume of ethanol, 40% by volume of propylene glycol and 40% by volume of a pH 8 aqueous buffer solution containing mono and di sodium phosphates. The slabs are left in the solution of the composition for two minutes and then rinsed in sterile PBS solution. After rinsing, each slab is placed in a 10×75 mm cotton stoppered glass culture tube containing 1 ml of sucrose-broth culture medium which is then innoculated with a 24 hour culture of the desired microorganism standardized to an optical density (OD) 540 of 1.0 for A. naeslundii and S. sanguis and of 0.75 for A. viscosus and S. mutans. 50 μl of the inoculation medium is used. A. viscosus is incubated under aerobic conditions and the others are incubated under anaerobic conditions (5% CO2 and 95% H2). After incubation for about 24 hours the nonadherent organisms are removed and the tube is rinsed twice with 0.5 ml of PBS and the washings combined with the nonadherent organisms.
# (§4) The tooth slabs are then transferred to 1 ml of 0.1 N NaOH and 1 ml of 0.1 N NaOH is also added to the glass culture tubes. The slabs and tubes are then sonically agitated, if necessary to suspend the adherent organisms. The optical density of each of the three fractions is then measured on a spectophotometer. The tests are repeated with varying concentrations of the compositions being tested until growth inhibition curves can be developed. The 50% growth inhibition dosages (ID50) are then determined with a reliability of + or -80% or better.
# [6] = tested on: Staphylococcus aureus; experiment: Minimum concentration to completely inhibit growth, Staphylococcus aureus; assay type: cell-based; conditions: procedure of Example 6
# Experimental: AN-10 is tested for effectiveness against the bacterium Staphylococcus aureus in accordance with the procedure set forth in Example 6.
# [7] = tested on: S.sanguis; experiment: Plaque growth inhibition in vitro on bovine tooth slabs, S.sanguis; assay type: cell-based, Streptoccus sanguis; conditions: for IC50: 2 min slab exposure, about 24 h incubation, anaerobic, reliability + or -80% or better; for % Inhibition @ Mol.Conc.: @ 1 × 10^-3 Mol.Conc.
# Experimental: as §2, §3, §4
# [8] = tested on: S.mutans; experiment: Bactericidal effects against established dental plaque (nichrome wires), S.mutans; assay type: cell-based; conditions: Streptococcus mutans, 2 min, read-out: Minimum Concentration Required for Complete Bactericidal Effect
# Experimental: as §1
# [9] = tested on: A.naeslundii; experiment: Plaque growth inhibition in vitro on bovine tooth slabs, A.naeslundii; assay type: cell-based, Actinomyces naeslundii; conditions: for IC50: Actinomyces naeslundii, 2 min slab exposure, about 24 h incubation, anaerobic, reliability + or -80% or better
# Experimental: as §2, §3, §4
# [10] = tested on: A.viscosus; experiment: Plaque growth inhibition in vitro on bovine tooth slabs, A.viscosus; assay type: cell-based, Actinomyces viscosus; conditions: for IC50: Actinomyces viscosus, 2 min slab exposure, about 24 h incubation, aerobic, reliability + or -80% or better
# Experimental: as §2, §3, §4
# [11] = background statement; cited from earlier work
# [12] = A.viscosus established plaque, immersion time two minutes
# [13] = S.mutans established plaque, immersion time two minutes
compound,measurement,setting,value
"CCCCCCCC(=O)c1ccc(O)c(C(=O)Nc2c(F)c(F)c(F)c(F)c2F)c1 [5-n-octanoyl-2',3',4',5',6'pentafluorosalicylanilide]",MIC,[1],~0.5 µg/mL
CCCCCCCCCC(=O)c1ccc(O)c(C(=O)Nc2ccc(Br)cc2)c1 [5-n-decoyl-4'-bromosalicylanilide],MIC,[2],0.125 µg/mL
"CCCCCCCCCC(=O)c1ccc(O)c(C(=O)Nc2ccc([N+](=O)[O-])cc2)c1 [AN-10, 5-n-decanoyl-4'-nitrosalicylanilide]",deaths within the first week following single dose,"[3]; 50, 750 and 2000 mg/kg oral, four rats each, the one death (50 mg/kg) attributed to trauma of administration",only one animal died
same,LD50,"[3]; rat, in vivo, single dose oral route, female Osborne-Mendel white rats",> 2000 mg/kg
same,MBC,[4]; [12],125 µg/mL
same,% Inhibition @ Mol.Conc.,[5]; @ 1 × 10^-3 Mol.Conc.,59%
same,IC50,[5]; read-out: ID50 Adherent Growth,23000 µM
same,IC50,[5]; read-out: ID50 Total Growth,1600 µM
same,MIC,[6],< 10 µg/mL
same,IC50,[7]; read-out: ID50 Adherent Growth,670 µM
same,IC50,[7]; read-out: ID50 Total Growth,370 µM
same,% Inhibition @ Mol.Conc.,[7],86%
same,MBC,[8]; [13],62.5 µg/mL
same,% Inhibition @ Mol.Conc.,[9]; @ 3.3 × 10^-4 Mol.Conc.,96%
same,IC50,[9]; read-out: ID50 Adherent Growth,43 µM
same,IC50,[9]; read-out: ID50 Total Growth,83 µM
same,% Inhibition @ Mol.Conc.,[10]; @ 1 × 10^-4 Mol.Conc.,96%
same,IC50,[10]; read-out: ID50 Adherent Growth,70 µM
same,IC50,[10]; read-out: ID50 Total Growth,73 µM
"[H]/N=C(\N/C(=N/[H])NCCCCCCNC(=N)NC(=N)Nc1ccc(Cl)cc1)Nc1ccc(Cl)cc1 [CLHX, Chlorhexidine]",MBC,[4]; [12],500 µg/mL
same,% Inhibition @ Mol.Conc.,[5]; @ 1 × 10^-3 Mol.Conc.,95%
same,IC50,[5]; read-out: ID50 Adherent Growth,97 µM
same,IC50,[5]; read-out: ID50 Total Growth,86 µM
same,IC50,[7]; read-out: ID50 Adherent Growth,85000 µM
same,IC50,[7]; read-out: ID50 Total Growth,390 µM
same,% Inhibition @ Mol.Conc.,[7],70%
same,MBC,[8]; [13],250 µg/mL
same,% Inhibition @ Mol.Conc.,[9]; @ 1 × 10^-3 Mol.Conc.,78%
same,IC50,[9]; read-out: ID50 Adherent Growth,5100 µM
same,IC50,[9]; read-out: ID50 Total Growth,4400 µM
same,% Inhibition @ Mol.Conc.,[10]; @ 1 × 10^-3 Mol.Conc.,85%
same,IC50,[10]; read-out: ID50 Adherent Growth,29 µM
same,IC50,[10]; read-out: ID50 Total Growth,23 µM
"O=C(Nc1ccc(Br)cc1)c1cc(Br)cc(Br)c1O [TBS, Tribromosalan]",MBC,[4],500 µg/mL
same,% Inhibition @ Mol.Conc.,[5]; @ 1.5 × 10^-3 Mol.Conc.,46%
same,% Inhibition @ Mol.Conc.,[7],46%
same,MBC,[8],1000 µg/mL
same,% Inhibition @ Mol.Conc.,[9]; @ 1.5 × 10^-3 Mol.Conc.,86%
same,% Inhibition @ Mol.Conc.,[10]; @ 1 × 10^-3 Mol.Conc.,53%
CCCCCCCCCCCC(=O)c1ccc(O)c(C(=O)Nc2ccc(Br)cc2)c1 [5-n-dodecoyl-4'-bromosalicylanilide],MIC,[2],0.05 µg/mL
"O=C(Nc1cccc(C(F)(F)F)c1)c1cc(Br)cc(Br)c1O [SBF-1, Fluorophene]",% Inhibition @ Mol.Conc.,[5]; @ 2 × 10^-3 Mol.Conc.,86%
same,% Inhibition @ Mol.Conc.,[10]; @ 3.3 × 10^-3 Mol.Conc.,65%
tetrachlorosalicylanilide,allergic reactions in man,[11],allergic reactions in man
CCCCCCCCCCCC(=O)c1ccc(O)c(C(=O)Nc2cccc(C(F)(F)F)c2)c1 [5-n-dodecoyl-3'-trifluoromethylsaliclyanilide],MIC,[2],0.5 to 1 µg/mL
CCCCCCCC(=O)c1ccc(O)c(C(=O)Nc2ccc([N+](=O)[O-])cc2)c1 [5-n-octoyl-4'-nitrosalicylanilide],MIC,[2],0.125 µg/mL
CCCCCCCCCCCC(=O)c1ccc(O)c(C(=O)Nc2ccc([N+](=O)[O-])cc2)c1 [5-n-dodecoyl-4'-nitrosalicylanilide],MIC,[2],0.05 µg/mL

# — patent publication US4287191A, “Novel salicylanilides and microbiocidal compositions and uses thereof” (The Research Foundation of State University of New York, priority 1980, dated 1981)
